Source: BindingDB's records for patent US20250215013 (Impact Therapeutics (Shanghai), 2025)

Columns and labels:
PARP2 = PARP2 (Homo sapiens, UniProt Q9UGN5); assay: PARP1 and PARP2 Chemiluminescent Assay
Procedure: (§1) The solutions were added to a 96-well plate coated with histone mixture, incubated at room temperature for 1 h, then 50 μL 0.3 ng/mL Streptavidin-HRP was added to each well. The plates were incubated for 30 minutes at room temperature. Finally, the plates were treated with streptavidin-HRP followed by addition of the ELISA ECL substrate to produce chemiluminescence that can be measured using a chemiluminescence reader. Inhibition of the tested compound to PARP1/2 enzyme activity was calculated according to the following formula.Inhibition ⁢ ( % ) = Readings ⁢ of ⁢ positive ⁢ control - X Readings ⁢ of ⁢ positive ⁢ control - Readings ⁢ of ⁢ negative ⁢ controlIC50 value is obtained by fitting the s-shaped dose response curve equation by using XL Fit software. The curve equation is Y=100/(1+10^(logC−logIC50)), C is the compound concentration.

[1] = target: Poly [ADP-ribose] polymerase 1 (Homo sapiens, UniProt P09874); assay: PARP1 and PARP2 Chemiluminescent Assay
Sequence of Poly [ADP-ribose] polymerase 1 (P09874 whole entry): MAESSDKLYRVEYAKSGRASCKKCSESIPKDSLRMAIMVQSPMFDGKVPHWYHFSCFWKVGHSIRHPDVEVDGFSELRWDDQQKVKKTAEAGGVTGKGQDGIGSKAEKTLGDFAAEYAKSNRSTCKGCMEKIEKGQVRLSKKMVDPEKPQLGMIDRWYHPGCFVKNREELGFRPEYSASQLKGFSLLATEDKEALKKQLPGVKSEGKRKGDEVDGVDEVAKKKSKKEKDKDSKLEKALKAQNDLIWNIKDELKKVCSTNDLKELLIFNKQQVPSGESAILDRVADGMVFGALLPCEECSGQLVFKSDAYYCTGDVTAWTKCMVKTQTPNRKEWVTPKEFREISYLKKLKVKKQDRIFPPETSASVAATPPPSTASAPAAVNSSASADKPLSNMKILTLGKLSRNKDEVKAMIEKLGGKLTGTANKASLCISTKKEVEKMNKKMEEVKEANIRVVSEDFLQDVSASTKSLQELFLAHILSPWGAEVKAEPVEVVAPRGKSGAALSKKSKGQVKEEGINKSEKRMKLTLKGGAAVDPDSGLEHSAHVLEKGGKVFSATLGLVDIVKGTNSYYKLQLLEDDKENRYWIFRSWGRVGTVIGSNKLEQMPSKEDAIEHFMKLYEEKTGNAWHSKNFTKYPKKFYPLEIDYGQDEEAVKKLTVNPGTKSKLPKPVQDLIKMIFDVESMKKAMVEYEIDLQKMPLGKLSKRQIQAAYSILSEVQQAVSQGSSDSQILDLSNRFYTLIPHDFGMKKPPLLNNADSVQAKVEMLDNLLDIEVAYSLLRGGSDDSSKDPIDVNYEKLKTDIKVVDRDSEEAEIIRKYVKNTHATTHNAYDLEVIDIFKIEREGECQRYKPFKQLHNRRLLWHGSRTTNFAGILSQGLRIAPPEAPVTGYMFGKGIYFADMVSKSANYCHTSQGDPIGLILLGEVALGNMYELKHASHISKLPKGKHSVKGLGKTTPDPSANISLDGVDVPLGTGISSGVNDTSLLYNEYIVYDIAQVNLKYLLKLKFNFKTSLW
Procedure: as §1

Sequence of PARP2 (Q9UGN5 whole entry): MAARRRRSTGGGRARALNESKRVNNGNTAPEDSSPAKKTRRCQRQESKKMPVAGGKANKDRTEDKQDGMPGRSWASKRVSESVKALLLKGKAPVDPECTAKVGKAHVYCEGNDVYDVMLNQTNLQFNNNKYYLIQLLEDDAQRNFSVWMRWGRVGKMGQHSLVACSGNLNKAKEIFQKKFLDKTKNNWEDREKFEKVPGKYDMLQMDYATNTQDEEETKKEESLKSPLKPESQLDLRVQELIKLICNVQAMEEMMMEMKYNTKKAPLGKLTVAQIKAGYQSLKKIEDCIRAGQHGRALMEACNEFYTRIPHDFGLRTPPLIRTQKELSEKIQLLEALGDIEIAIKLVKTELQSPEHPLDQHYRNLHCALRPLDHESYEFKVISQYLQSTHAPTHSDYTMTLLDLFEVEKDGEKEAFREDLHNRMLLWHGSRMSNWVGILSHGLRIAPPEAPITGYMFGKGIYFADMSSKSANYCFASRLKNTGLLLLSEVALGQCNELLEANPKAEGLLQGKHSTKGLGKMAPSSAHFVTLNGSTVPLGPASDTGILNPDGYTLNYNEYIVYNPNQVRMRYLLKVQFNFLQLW

Row | SMILES | IC50 (PARP2) [nM] | IC50 [1] [nM]
1 | CNC(=O)c1ccc(N2CCN(Cc3ccc4c([nH]c(=O)n5ccnc45)c3F)CC2)c(C)n1 [US20250215013, Example 50] | > 10000 | 2.13
2 | CNC(=O)c1ccc(N2CCN(Cc3ccc4c([nH]c(=O)c5c(F)cnn54)c3F)CC2)c(F)n1 [US20250215013, Example 188] | 1540 | 0.4
